According to EP2058315A1, “1H-Furo[3,2-C]Pyrazoles active as aurora kinase inhibitors” (Nerviano Medical Sciences S.r.l., priority 2007, dated 2009):
Read-outs that look alike come from different tables or passages of the source.

Experiments:
Aurora-2 = target: T1, Aurora-2 (Homo sapiens, UniProt O14965); assay: Inhibition assay of Aurora-2 activity (SPA technology); format: biochemical
T1 sequence (O14965 1-403): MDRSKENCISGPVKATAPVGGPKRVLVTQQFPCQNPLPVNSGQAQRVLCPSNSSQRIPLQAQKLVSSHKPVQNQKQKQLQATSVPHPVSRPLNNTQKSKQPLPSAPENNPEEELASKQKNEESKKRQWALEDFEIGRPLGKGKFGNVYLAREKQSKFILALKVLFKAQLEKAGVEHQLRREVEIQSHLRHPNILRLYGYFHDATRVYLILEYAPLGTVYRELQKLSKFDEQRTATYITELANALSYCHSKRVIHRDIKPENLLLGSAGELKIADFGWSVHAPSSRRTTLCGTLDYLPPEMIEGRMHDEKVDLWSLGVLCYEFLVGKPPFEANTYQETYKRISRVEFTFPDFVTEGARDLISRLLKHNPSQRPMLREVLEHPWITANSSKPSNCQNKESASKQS
Procedure: The inhibiting activity and the potency of selected compounds is determined through a method of assay based on the use of the SPA technology (Amersham Pharmacia Biotech).
The assay consists of the transfer of radioactivity labelled phosphate moiety by the kinase to a biotinylated substrate. The resulting 33P-labelled biotinylated product is allowed to bind to streptavidin-coated SPA beads (biotin capacity 130 pmol/mg), and light emitted was measured in a scintillation counter.
Kinase reaction: 8 µM biotinylated peptide (4 repeats of LRRWSLG, commercially available from Sigma, catalogue no. L-3523), 10 µM ATP (0.5 uCi P^33γ-ATP), 7.5 ng Aurora 2, inhibitor in a final volume of 30 µl buffer (HEPES 50 mM pH 7.0, MgCl2 10 mM, 1 mM DTT, 0.2 mg/mL BSA, 3 µM orthovanadate) were added to each well of a 96 U bottom well plate. After 60 minutes at room temperature incubation, the reaction was stopped and biotinylated peptide captured by adding 100 µl of bead suspension.
Stratification: 100 µl of CsCl 5 M were added to each well and stood for 4 hours before radioactivity was counted in the Top-Count instrument.
IC50 determination: inhibitors were tested at different concentrations ranging from 0.0015 to 10 µM. Experimental data were analyzed by the computer program GraphPad Prizm using the four parameter logistic equation: y = bottom+(top-bottom)/(1+10^((logIC50-x)*slope)) where x is the logarithm of the inhibitor concentration, y is the response; y starts at bottom and goes to top with a sigmoid shape. Ki calculation: Experimental method: Reaction was carried out in buffer (10 mM Tris, pH 7.5, 10 mM MgCl2, 0.2 mg/mL BSA, 7.5 mM DTT) containing 3.7 nM enzyme, histone and ATP (constant ratio of cold/labeled ATP 1/3000). The reaction was stopped with EDTA and the substrate captured on phosphomembrane (Multiscreen 96 well plates from Millipore). After extensive washing, the multiscreen plates were read on a top counter. Control (time zero) for each ATP and histone concentrations was measured.

[1] = tested on: human colon cancer cell line HCT-116; assay: In vitro cell proliferation assay; format: cell-based; details: HCT-116, 72 hours of treatment, cell count, read-out: Cell Antiproliferation (HCT-116) IC50
Procedure: The human colon cancer cell line HCT-116 was seeded at 5000 cells/cm^2 in 24 wells plate (Costar) using F12 medium (Gibco) supplemented with 10% FCS (EuroClone, Italy) 2 mM L-glutamine and 1% penicillin/streptomycin and maintained at 37°C, 5% CO2 and 96% relative humidity. The following day, plates were treated in duplicates with 5ul of an appropriate dilution of compounds starting from a 10 mM stock in DMSO. Two untreated control wells were included in each plate. After 72 hours of treatment, medium was withdrawn and cells detached from each well using 0.5 mL of 0.05% (w/v) Trypsin, 0,02% (w/v) EDTA (Gibco). Samples were diluted with 9.5 mL of Isoton (Coulter) and counted using a Multisizer 3 cell counter (Beckman Coulter). Data were evaluated as percent of the control wells: % of CTR = (Treated - Blank)/(Control - Blank).
IC50 values were calculated by LSW/Data Analysis using Microsoft Excel sigmoidal curve fitting. […] See, as an example, the following Table 1 reporting the experimental data of some representative compounds of the invention being tested as Aurora-2 kinase inhibitors (IC50 nM) and for their cell antiproliferative effect (IC50 nM), namely: • Compound (1) is 3-[(Thiophene-2-carbonyl)-amino]-1H-furo[3,2-c]pyrazole-5-carboxylic acid (1-methyl-1-phenyl-ethyl)-amide; • Compound (2) is 3-(4-Morpholin-4-ylmethyl-benzoylamino)-1H-furo[3,2-c]pyrazole-5-carboxylic acid[1-(2-fluoro-phenyl)-1-methyl-ethyl]-amide • Compound (3) is 3-[4-(4-Methyl-piperazin-1-yl)-benzoylamino]-1H-furo[3,2-c]pyrazole-5-carboxylic acid (1-phenyl-cyclopropyl)-amide Table 1

[2] = screened according to the methods of the pharmacology section, read-out: IC50values for Aur2 inhibition
[3] = 10 µM ATP, 60 minutes at room temperature, SPA, read-out: Aurora-2 inhibition IC50

Row | IC50 (Aurora-2; [2]) | IC50 (Aurora-2; [3]) | IC50 [1] | IC50 ([1]; Homo sapiens, HCT-116, 72 h) | Compound
1 | < 10 nM |  |  |  | CN1CCC(Oc2ccc(C(=O)Nc3n[nH]c4cc(C(=O)NC(C)(C)c5ccccc5)oc34)cc2)CC1 [Compound 30, N-(1-methyl-1-phenylethyl)-3-({4-[(1-methylpiperidin-4-yl)oxy]benzoyl}amino)-1H-furo[3,2-c]pyrazole-5-carboxamide]
2 | < 10 nM |  |  |  | Cn1ccc(C(=O)Nc2n[nH]c3cc(C(=O)NC(C)(C)c4ccccc4)oc23)n1 [Compound 56, N-(1-methyl-1-phenylethyl)-3-{[(1-methyl-1H-pyrazol-3-yl)carbonyl]amino}-1H-furo[3,2-c]pyrazole-5-carboxamide]
3 | < 10 nM |  |  |  | CN1CCN(Cc2ccc(C(=O)Nc3n[nH]c4cc(C(=O)NC(C)(C)c5ccccc5F)oc34)cc2)CC1 [Compound 60, N-[1-(2-fluorophenyl)-1-methylethyl]-3-({4-[(4-methylpiperazin-1-yl)methyl]benzoyl}amino)-1H-furo[3,2-c]pyrazole-5-carboxamide]
4 | < 10 nM |  |  |  | Cc1cc(C(=O)Nc2n[nH]c3cc(C(=O)NC(C)(C)c4ccccc4)oc23)n(C)n1 [Compound 38, 3-{[(1,3-dimethyl-1 H-pyrazol-5-yl)carbonyl]amino}-N-(1-methyl-1-phenylethyl)-1H-furo[3,2-c]pyrazole-5-carboxamide]
5 | < 10 nM | 4 nM | 4 nM | 4 to 10 nM | CN1CCN(c2ccc(C(=O)Nc3n[nH]c4cc(C(=O)NC5(c6ccccc6)CC5)oc34)cc2)CC1 [Compound 3, 3-[4-(4-Methyl-piperazin-1-yl)-benzoylamino]-1H-furo[3,2-c]pyrazole-5-carboxylic acid (1-phenyl-cyclopropyl)-amide]
6 | < 10 nM |  |  |  | CN1CCN(c2ccc(C(=O)Nc3n[nH]c4cc(C(=O)NC(C)(C)c5ccccc5)oc34)cc2)CC1 [Compound 10, N-(1-methyl-1-phenylethyl)-3-{[4-(4-methylpiperazin-1-yl)benzoyl]amino}-1H-furo[3,2-c]pyrazole-5-carboxamide]
7 | < 10 nM |  |  |  | O=C(Nc1n[nH]c2cc(C(=O)NC3(c4ccccc4)CCCC3)oc12)c1ccco1 [Compound 40, 3-(2-furoylamino)-N-(1-phenylcyclopentyl)-1H-furo[3,2-c]pyrazole-5-carboxamide]
8 | < 10 nM | 3 nM | 10 nM |  | CC(C)(NC(=O)c1cc2[nH]nc(NC(=O)c3cccs3)c2o1)c1ccccc1 [Compound 1, 3-[(Thiophene-2-carbonyl)-amino]-1H-furo[3,2-c]pyrazole-5-carboxylic acid (1-methyl-1-phenyl-ethyl)-amide]
9 | < 10 nM |  |  |  | CC(C)(NC(=O)c1cc2[nH]nc(NC(=O)c3ccc(OCCN4CCCC4)cc3)c2o1)c1ccccc1F [Compound 69, N-[1-(2-fluorophenyl)-1-methylethyl]-3-{[4-(2-pyrrolidin-1-ylethoxy)benzoyl]amino}-1H-furo[3,2-c]pyrazole-5-carboxamide]
10 | < 10 nM |  |  |  | Cn1nccc1C(=O)Nc1n[nH]c2cc(C(=O)NC(C)(C)c3ccccc3)oc12 [Compound 55, N-(1-methyl-1-phenylethyl)-3-{[(1-methyl-1H-pyrazol-5-yl)carbonyl]amino}-1H-furo[3,2-c]pyrazole-5-carboxamide]
11 | < 10 nM |  |  |  | CC(C)(NC(=O)c1cc2[nH]nc(NC(=O)c3ccsc3)c2o1)c1ccccc1 [Compound 63, N-(1-methyl-1-phenylethyl)-3-[(3-thienylcarbonyl)amino]-1H-furo[3,2-c]pyrazole-5-carboxamide]
12 | < 10 nM |  |  |  | Cn1cccc1C(=O)Nc1n[nH]c2cc(C(=O)NC(C)(C)c3ccccc3)oc12 [Compound 33, N-(1-methyl-1-phenylethyl)-3-{[(1-methyl-1H-pyrrol-2-yl)carbonyl]amino}-1H-furo[3,2-c]pyrazole-5-carboxamide]
13 | < 10 nM |  |  |  | CC(C)NCc1ccc(C(=O)Nc2n[nH]c3cc(C(=O)NC(C)(C)c4ccccc4)oc23)cc1 [Compound 70, 3-({4-[(isopropylamino)methyl]benzoyl}amino)-N-(1-methyl-1-phenylethyl)-1H-furo[3,2-c]pyrazole-5-carboxamide]
14 | < 10 nM |  |  |  | CC(C)(NC(=O)c1cc2[nH]nc(NC(=O)c3cscn3)c2o1)c1ccccc1 [Compound 64, N-(1-methyl-1-phenylethyl)-3-[(1,3-thiazol-4-ylcarbonyl)amino]-1H-furo[3,2-c]pyrazole-5-carboxamide]
15 | < 10 nM |  |  |  | CC(C)(NC(=O)c1cc2[nH]nc(NC(=O)c3ccc(CN4CCCC4)cc3)c2o1)c1ccccc1 [Compound 34, N-(1-methyl-1-phenylethyl)-3-{[4-(pyrrolidin-1-ylmethyl)benzoyl]amino}-1H-furo[3,2-c]pyrazole-5-carboxamide]
16 | < 10 nM | 1 nM | 2 nM | 4 to 10 nM | CC(C)(NC(=O)c1cc2[nH]nc(NC(=O)c3ccc(CN4CCOCC4)cc3)c2o1)c1ccccc1F [Compound 2, 3-(4-Morpholin-4-ylmethyl-benzoylamino)-1H-furo[3,2-c]pyrazole-5-carboxylic acid[1-(2-fluoro-phenyl)-1-methyl-ethyl]-amide]
17 | < 10 nM |  |  |  | CN1CCN(c2ccc(C(=O)Nc3n[nH]c4cc(C(=O)NC5(c6ccccc6)CCCC5)oc34)cc2)CC1 [Compound 27, 3-{[4-(4-methylpiperazin-1-yl)benzoyl]amino}-N-(1-phenylcyclopentyl)-1H-furo[3,2-c]pyrazole-5-carboxamide]
18 | < 10 nM |  |  |  | CC(C)(NC(=O)c1cc2[nH]nc(NC(=O)c3ccco3)c2o1)c1ccccc1F [Compound 39, N-[1-(2-fluorophenyl)-1-methylethyl]-3-(2-furoylamino)-1H-furo[3,2-c]pyrazole-5-carboxamide]
19 | < 10 nM |  |  |  | Cc1occc1C(=O)Nc1n[nH]c2cc(C(=O)NC(C)(C)c3ccccc3)oc12 [Compound 41, 3-[(2-methyl-3-furoyl)amino]-N-(1-methyl-1-phenylethyl)-1H-furo[3,2-c]pyrazole-5-carboxamide]
